Results as given in the NIST ThermoML archive (doi:10.1021/je800754w).
Numbers after ± are expanded uncertainties.

Assay: activity coefficient (dimensionless); of the first substance listed, at infinite dilution; xn = mol fraction of the nth substance listed
Conditions: Liquid, Chromatography, x1 = 0

Row | Compound | activity coefficient (302.45 K) | activity coefficient (322.35 K) | activity coefficient (342.45 K)
1 | C1COCCO1 [1,4-dioxane] + CCCCCCCCCCCCCC[P+](CCCCCC)(CCCCCC)CCCCCC.O=S(=O)([N-]S(=O)(=O)C(F)(F)F)C(F)(F)F | 0.51 ± 0.04 | 0.49 ± 0.04 | 0.48 ± 0.04
2 | C#CCCCCC [1-heptyne] + CCCCCCCCCCCCCC[P+](CCCCCC)(CCCCCC)CCCCCC.O=S(=O)([N-]S(=O)(=O)C(F)(F)F)C(F)(F)F | 0.77 ± 0.05 | 0.78 ± 0.05 | 0.8 ± 0.05
3 | C#CCCCC [1-hexyne] + CCCCCCCCCCCCCC[P+](CCCCCC)(CCCCCC)CCCCCC.O=S(=O)([N-]S(=O)(=O)C(F)(F)F)C(F)(F)F | 0.7 ± 0.1 | 0.69 ± 0.05 | 0.67 ± 0.05
4 | CCC[N+](=O)[O-] [1-nitropropane] + CCCCCCCCCCCCCC[P+](CCCCCC)(CCCCCC)CCCCCC.O=S(=O)([N-]S(=O)(=O)C(F)(F)F)C(F)(F)F | 2.19 ± 0.15 | 1.62 ± 0.11 | 1.35 ± 0.09
5 | CC(C)CO [2-methyl-1-propanol] + CCCCCCCCCCCCCC[P+](CCCCCC)(CCCCCC)CCCCCC.O=S(=O)([N-]S(=O)(=O)C(F)(F)F)C(F)(F)F | 1.49 ± 0.1 | 1.15 ± 0.07 | 0.95 ± 0.06
6 | CCC(C)CC [3-methylpentane] + CCCCCCCCCCCCCC[P+](CCCCCC)(CCCCCC)CCCCCC.O=S(=O)([N-]S(=O)(=O)C(F)(F)F)C(F)(F)F | 1.04 ± 0.07 | 0.98 ± 0.06 | 0.94 ± 0.06
7 | CC#N [acetonitrile] + CCCCCCCCCCCCCC[P+](CCCCCC)(CCCCCC)CCCCCC.O=S(=O)([N-]S(=O)(=O)C(F)(F)F)C(F)(F)F | 0.56 ± 0.04 | 0.5 ± 0.04 | 0.46 ± 0.04
8 | c1ccccc1 [benzene] + CCCCCCCCCCCCCC[P+](CCCCCC)(CCCCCC)CCCCCC.O=S(=O)([N-]S(=O)(=O)C(F)(F)F)C(F)(F)F | 0.39 ± 0.03 | 0.39 ± 0.03 | 0.39 ± 0.03
9 | CCCCO [butan-1-ol] + CCCCCCCCCCCCCC[P+](CCCCCC)(CCCCCC)CCCCCC.O=S(=O)([N-]S(=O)(=O)C(F)(F)F)C(F)(F)F | 1.62 ± 0.11 | 1.26 ± 0.08 | 1.04 ± 0.07
10 | CCCC=O [butanal] + CCCCCCCCCCCCCC[P+](CCCCCC)(CCCCCC)CCCCCC.O=S(=O)([N-]S(=O)(=O)C(F)(F)F)C(F)(F)F | 0.38 ± 0.03 | 0.36 ± 0.03 | 0.35 ± 0.03
11 | CCC(C)=O [butanone] + CCCCCCCCCCCCCC[P+](CCCCCC)(CCCCCC)CCCCCC.O=S(=O)([N-]S(=O)(=O)C(F)(F)F)C(F)(F)F | 0.28 ± 0.03 | 0.27 ± 0.03 | 0.23 ± 0.03
12 | C1CCCCCC1 [cycloheptane] + CCCCCCCCCCCCCC[P+](CCCCCC)(CCCCCC)CCCCCC.O=S(=O)([N-]S(=O)(=O)C(F)(F)F)C(F)(F)F | 0.83 ± 0.05 | 1.81 ± 0.12 | 3.59 ± 0.24
13 | C1CCCCC1 [cyclohexane] + CCCCCCCCCCCCCC[P+](CCCCCC)(CCCCCC)CCCCCC.O=S(=O)([N-]S(=O)(=O)C(F)(F)F)C(F)(F)F | 0.83 ± 0.05 | 0.78 ± 0.05 | 0.75 ± 0.05
14 | CCCCCCCCCC [decane] + CCCCCCCCCCCCCC[P+](CCCCCC)(CCCCCC)CCCCCC.O=S(=O)([N-]S(=O)(=O)C(F)(F)F)C(F)(F)F | 1.97 ± 0.13 | 1.89 ± 0.13 | 1.84 ± 0.12
15 | ClCCl [dichloromethane] + CCCCCCCCCCCCCC[P+](CCCCCC)(CCCCCC)CCCCCC.O=S(=O)([N-]S(=O)(=O)C(F)(F)F)C(F)(F)F | 0.23 ± 0.03 | 0.25 ± 0.03 | 0.27 ± 0.03
16 | CCOCC [diethyl ether] + CCCCCCCCCCCCCC[P+](CCCCCC)(CCCCCC)CCCCCC.O=S(=O)([N-]S(=O)(=O)C(F)(F)F)C(F)(F)F | 0.62 ± 0.04 | 0.59 ± 0.04 | 0.57 ± 0.04
17 | CC(C)OC(C)C [diisopropyl ether] + CCCCCCCCCCCCCC[P+](CCCCCC)(CCCCCC)CCCCCC.O=S(=O)([N-]S(=O)(=O)C(F)(F)F)C(F)(F)F | 0.93 ± 0.06 | 0.9 ± 0.06 | 0.87 ± 0.06
18 | CCO [ethanol] + CCCCCCCCCCCCCC[P+](CCCCCC)(CCCCCC)CCCCCC.O=S(=O)([N-]S(=O)(=O)C(F)(F)F)C(F)(F)F | 1.56 ± 0.1 | 1.23 ± 0.08 | 1.01 ± 0.06
19 | CCc1ccccc1 [ethylbenzene] + CCCCCCCCCCCCCC[P+](CCCCCC)(CCCCCC)CCCCCC.O=S(=O)([N-]S(=O)(=O)C(F)(F)F)C(F)(F)F | 0.54 ± 0.04 | 0.57 ± 0.04 | 0.59 ± 0.04
20 | CCCCCCC [heptane] + CCCCCCCCCCCCCC[P+](CCCCCC)(CCCCCC)CCCCCC.O=S(=O)([N-]S(=O)(=O)C(F)(F)F)C(F)(F)F | 1.27 ± 0.08 | 1.22 ± 0.08 | 1.19 ± 0.08

Row | Compound | activity coefficient (302.45 K) | activity coefficient (322.35 K) | activity coefficient (342.45 K)
21 | C=CCCCC [hex-1-ene] + CCCCCCCCCCCCCC[P+](CCCCCC)(CCCCCC)CCCCCC.O=S(=O)([N-]S(=O)(=O)C(F)(F)F)C(F)(F)F | 0.91 ± 0.06 | 0.87 ± 0.06 | 0.85 ± 0.05
22 | CCCCCC [hexane] + CCCCCCCCCCCCCC[P+](CCCCCC)(CCCCCC)CCCCCC.O=S(=O)([N-]S(=O)(=O)C(F)(F)F)C(F)(F)F | 1.09 ± 0.07 | 1.04 ± 0.07 | 1.01 ± 0.06
23 | C=O [methanal] + CCCCCCCCCCCCCC[P+](CCCCCC)(CCCCCC)CCCCCC.O=S(=O)([N-]S(=O)(=O)C(F)(F)F)C(F)(F)F | 0.06 | 0.06 | 0.07 ± 0.03
24 | CO [methanol] + CCCCCCCCCCCCCC[P+](CCCCCC)(CCCCCC)CCCCCC.O=S(=O)([N-]S(=O)(=O)C(F)(F)F)C(F)(F)F | 1.29 ± 0.08 | 0.98 ± 0.06 | 0.86 ± 0.06
25 | CC1CCCCC1 [methylcyclohexane] + CCCCCCCCCCCCCC[P+](CCCCCC)(CCCCCC)CCCCCC.O=S(=O)([N-]S(=O)(=O)C(F)(F)F)C(F)(F)F | 0.92 ± 0.06 | 0.89 ± 0.06 | 0.86 ± 0.06
26 | CC1CCCC1 [methylcyclopentane] + CCCCCCCCCCCCCC[P+](CCCCCC)(CCCCCC)CCCCCC.O=S(=O)([N-]S(=O)(=O)C(F)(F)F)C(F)(F)F | 0.85 ± 0.05 | 0.8 ± 0.1 | 0.77 ± 0.05
27 | C[N+](=O)[O-] [nitromethane] + CCCCCCCCCCCCCC[P+](CCCCCC)(CCCCCC)CCCCCC.O=S(=O)([N-]S(=O)(=O)C(F)(F)F)C(F)(F)F | 0.77 ± 0.05 | 0.64 ± 0.04 | 0.58 ± 0.04
28 | CCCCCCCCC [nonane] + CCCCCCCCCCCCCC[P+](CCCCCC)(CCCCCC)CCCCCC.O=S(=O)([N-]S(=O)(=O)C(F)(F)F)C(F)(F)F | 1.87 ± 0.13 | 1.8 ± 0.1 | 1.74 ± 0.12
29 | CCCCCCCC [octane] + CCCCCCCCCCCCCC[P+](CCCCCC)(CCCCCC)CCCCCC.O=S(=O)([N-]S(=O)(=O)C(F)(F)F)C(F)(F)F | 1.48 ± 0.1 | 1.42 ± 0.09 | 1.4 ± 0.1
30 | CCCC(C)=O [pentan-2-one] + CCCCCCCCCCCCCC[P+](CCCCCC)(CCCCCC)CCCCCC.O=S(=O)([N-]S(=O)(=O)C(F)(F)F)C(F)(F)F | 0.31 ± 0.03 | 0.32 ± 0.03 | 0.33 ± 0.03
31 | CCCO [propan-1-ol] + CCCCCCCCCCCCCC[P+](CCCCCC)(CCCCCC)CCCCCC.O=S(=O)([N-]S(=O)(=O)C(F)(F)F)C(F)(F)F | 1.53 ± 0.1 | 1.21 ± 0.08 | 1 ± 0.06
32 | CC(C)O [propan-2-ol] + CCCCCCCCCCCCCC[P+](CCCCCC)(CCCCCC)CCCCCC.O=S(=O)([N-]S(=O)(=O)C(F)(F)F)C(F)(F)F |  | 1.22 ± 0.08 | 0.99 ± 0.06
33 | CCC=O [propanal] + CCCCCCCCCCCCCC[P+](CCCCCC)(CCCCCC)CCCCCC.O=S(=O)([N-]S(=O)(=O)C(F)(F)F)C(F)(F)F | 0.35 ± 0.03 | 0.33 ± 0.03 | 0.31 ± 0.03
34 | c1ccncc1 [pyridine] + CCCCCCCCCCCCCC[P+](CCCCCC)(CCCCCC)CCCCCC.O=S(=O)([N-]S(=O)(=O)C(F)(F)F)C(F)(F)F | 0.52 ± 0.04 | 0.41 ± 0.03 | 0.34 ± 0.03
35 | ClC(Cl)(Cl)Cl [tetrachloromethane] + CCCCCCCCCCCCCC[P+](CCCCCC)(CCCCCC)CCCCCC.O=S(=O)([N-]S(=O)(=O)C(F)(F)F)C(F)(F)F | 0.55 ± 0.04 | 0.55 ± 0.04 | 0.55 ± 0.04
36 | c1ccsc1 [thiophene] + CCCCCCCCCCCCCC[P+](CCCCCC)(CCCCCC)CCCCCC.O=S(=O)([N-]S(=O)(=O)C(F)(F)F)C(F)(F)F | 0.42 ± 0.04 | 0.4 ± 0.03 | 0.38 ± 0.03
37 | Cc1ccccc1 [toluene] + CCCCCCCCCCCCCC[P+](CCCCCC)(CCCCCC)CCCCCC.O=S(=O)([N-]S(=O)(=O)C(F)(F)F)C(F)(F)F | 0.46 ± 0.04 | 0.46 ± 0.04 | 0.47 ± 0.04
38 | ClC(Cl)Cl [trichloromethane] + CCCCCCCCCCCCCC[P+](CCCCCC)(CCCCCC)CCCCCC.O=S(=O)([N-]S(=O)(=O)C(F)(F)F)C(F)(F)F | 0.29 ± 0.03 | 0.31 ± 0.03 | 0.32 ± 0.03
39 | CCCCCCCCCCC [undecane] + CCCCCCCCCCCCCC[P+](CCCCCC)(CCCCCC)CCCCCC.O=S(=O)([N-]S(=O)(=O)C(F)(F)F)C(F)(F)F | 2.32 ± 0.16 | 2.18 ± 0.15 | 2.1 ± 0.2
